Results taken from US5677327A, “Method for identifying muscarinic agents lacking miotic side effects” (priority 1995, dated 1997).
Like-named read-outs stand apart in the source and are kept apart here.

Key:
[1] = biological target: T1, human m5 receptor subtype (Homo sapiens, UniProt P08912); assay: Agonist-induced hydrolysis of inositol phospholipids (PI hydrolysis) in CHO-K1 cells expressing m5; type: cell-based; conditions: for Emax: CHO-K1, 0.5 h; for EC50: CHO-K1 m5 cells, EC50 calculated as 50% of the maximum response of the PI hydrolysis, read-out: POTENCY ON PI HYDROLYSIS, EC 50, m5 cells; for m3/m5 ratio: ratio of EC50 at m3 to EC50 at m5, 30 min
T1 construct: expressed in transfected cells
T1 sequence (P08912 1-532): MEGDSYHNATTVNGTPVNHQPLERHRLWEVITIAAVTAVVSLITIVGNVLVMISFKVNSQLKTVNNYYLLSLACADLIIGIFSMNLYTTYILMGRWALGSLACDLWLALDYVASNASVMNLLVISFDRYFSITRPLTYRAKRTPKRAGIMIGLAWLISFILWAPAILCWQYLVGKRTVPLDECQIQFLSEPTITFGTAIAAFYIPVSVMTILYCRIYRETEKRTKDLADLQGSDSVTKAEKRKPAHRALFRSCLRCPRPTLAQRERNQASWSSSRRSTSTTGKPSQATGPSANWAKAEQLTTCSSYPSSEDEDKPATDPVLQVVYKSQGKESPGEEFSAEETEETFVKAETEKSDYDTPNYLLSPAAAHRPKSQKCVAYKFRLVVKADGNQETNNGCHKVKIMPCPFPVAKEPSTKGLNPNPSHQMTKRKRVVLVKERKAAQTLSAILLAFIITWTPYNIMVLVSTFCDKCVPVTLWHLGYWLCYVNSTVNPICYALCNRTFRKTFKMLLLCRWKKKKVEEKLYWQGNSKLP
Experimental: (§1) Chinese hamster ovary (CHO-K1) cells stably expressing the human m3 or m5 receptor subtype were grown to confluency in DMEM/F12 medium containing 10% fetal calf serum and 1 unit/ml penicillin/streptomycin in a 37° C. incubator. Activity of muscarinic agonists in these cells was determined by measuring agonist induced hydrolysis of inositol phospholipids. Confluent cells plated at 0.1×10^6 cells/well in a 24-well dish were incubated in medium containing 4 μCi/ml myo-[2-^3 H] inositol overnight. This labels the inositol phospholipids in the cells. The next morning, the cells were washed to remove excess medium and incubated for 10 minutes before and 30 minutes after the addition of various muscarinic agonists in assay buffer containing 10 mM LiCl. The hydrolysis of inositol phospholipids generates inositol phosphates which were extracted and separated on dowex-formate columns and radioactivity determined. Radioactivity of the unhydrolyzed inositol phospholipids was also determined and percent hydrolysis calculated as a measure of agonist activity.
(§2) The EC50 was calculated as 50% of the maximum response of the PI hydrolysis

[2] = biological target: T2, human m3 receptor subtype (Homo sapiens, UniProt P20309); assay: Agonist-induced hydrolysis of inositol phospholipids (PI hydrolysis) in CHO-K1 cells expressing m3; type: cell-based; conditions: for Emax: CHO-K1, 0.5 h, read-out: MAXIMUM RESPONSE BY MUSCARINIC AGONISTS, m3 cells; for EC50: CHO-K1 m3 cells, EC50 calculated as 50% of the maximum response of the PI hydrolysis, read-out: POTENCY ON PI HYDROLYSIS, EC 50, m3 cells
T2 construct: expressed in transfected cells
T2 sequence (P20309 whole entry): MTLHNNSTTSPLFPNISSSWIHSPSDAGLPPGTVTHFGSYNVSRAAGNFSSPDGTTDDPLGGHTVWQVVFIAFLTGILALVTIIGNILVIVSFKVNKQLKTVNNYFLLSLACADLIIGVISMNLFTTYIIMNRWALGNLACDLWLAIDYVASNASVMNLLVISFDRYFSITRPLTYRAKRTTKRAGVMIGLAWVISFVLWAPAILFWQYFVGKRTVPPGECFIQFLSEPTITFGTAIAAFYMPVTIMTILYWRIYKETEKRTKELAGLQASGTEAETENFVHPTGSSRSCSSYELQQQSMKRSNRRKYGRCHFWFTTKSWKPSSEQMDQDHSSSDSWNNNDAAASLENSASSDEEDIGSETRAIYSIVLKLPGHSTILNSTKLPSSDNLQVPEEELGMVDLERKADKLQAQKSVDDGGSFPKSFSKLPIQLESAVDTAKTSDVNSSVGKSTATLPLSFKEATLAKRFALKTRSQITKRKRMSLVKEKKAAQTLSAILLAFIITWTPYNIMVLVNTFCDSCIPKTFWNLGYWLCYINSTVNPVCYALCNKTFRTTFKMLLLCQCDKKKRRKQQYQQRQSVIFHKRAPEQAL
Experimental: as §1, §2

[3] = Test for lowering IOP and miosis; type: in vivo; conditions: for IOP-lowering: in vivo; for miosis: side effect when tested for lowering IOP
[4] = read-out: MAXIMUM RESPONSE BY MUSCARINIC AGONISTS, m5 cells, read-out: MAXIMUM RESPONSE BY […] AGONISTS, m5 cells

Emax [1, 4] [%] | Emax ([1]; read-out: hydrolysis elicited relative to carbachol at the m5 receptor) [%] | EC50 [1] [µM] | m3/m5 ratio [1] | Emax [2] [%] | EC50 [2] [µM] | Structure (SMILES) | IOP-lowering [3] | miosis [3] | Emax ([1]; read-out: MAXIMUM RESPONSE BY MUSCARINIC AGONISTS, m5 cells) [%]
30 ± 2 | 30 | 0.06 | 5 | 30 ± 3 | 0.3 | CC(=O)N(C)C(C)C#CCN1CCCC1 (centres unmarked) [BM-5, N-Methyl-N-(1-methyl-4-pyrrolidino-2-butynyl)acetamide] | IOP-lowering | miosis | –
84 ± 11 | – | 5 | 4 | 70 ± 7 | 20 | CC[C@H]1C(=O)NC[C@@H]1Cc1cncn1C [AGN 190456, 3R, 4R-ethyl-[(1-methyl-1H-imidazol-5-yl)methyl]-2-pyrrolidinone] | effective | minimal miosis | –

Structure (SMILES) | Emax [1, 4] [%] | Emax ([1]; read-out: hydrolysis elicited relative to carbachol at the m5 receptor) [%] | EC50 [1] [µM] | m3/m5 ratio [1] | Emax [2] [%] | EC50 [2] [µM] | IOP-lowering [3] | miosis [3] | Emax ([1]; read-out: MAXIMUM RESPONSE BY MUSCARINIC AGONISTS, m5 cells) [%]
C[N+](C)(C)CCOC(N)=O [CARBACHOL, carbachol] | 100 | – | – | – | – | – | – | – | –
CC1CCC(=O)N1CC#CCN1CCC1 (centres unmarked) [BR-370, N-(4-Azetidinyl-2-butynyl)-5-methyl-2-pyrrolidone] | – | – | 0.7 | – | 96 ± 40 | 0.8 | – | – | 110 ± 8
